The subject of assay [1] is mature IL-1β, Human Peripheral Blood Mononuclear Cells (PBMC). The assay can be described thus: Cell assay: IL-1β assay with human PBMC or enriched adherent mononuclear cells. As to conditions: LPS-stimulated cells, mature IL-1β by ELISA. In kind it is cell-based. From the text:
IL-1β Assay with a Mixed Population of Human Peripheral Blood Mononuclear Cells (PBMC) or Enriched Adherent Mononuclear Cells
Processing of pre-IL-1β by ICE can be measured in cell culture using a variety of cell sources. Human PBMC obtained from healthy donors provides a mixed population of lymphocyte subtypes and mononuclear cells that produce a spectrum of interleukins and cytokines in response to many classes of physiological stimulators. Adherent mononuclear cells from PBMC provides an enriched source of normal monocytes for selective studies of cytokine production by activated cells.
An initial dilution series of test compound in DMSO or ethanol is prepared, with a subsequent dilution into RPMI-10% FBS media (containing 2 mM L-glutamine, 10 mM HEPES, 50 U and 50 ug/ml pen/strep) respectively to yield drugs at 4× the final test concentration containing 0.4% DMSO or 0.4% ethanol. The final concentration of DMSO is 0.1% for all drug dilutions. A concentration titration which brackets the apparent Ki for a test compound determined in an ICE inhibition assay is generally used for the primary compound screen.
We generally test 5-6 compound dilutions and have performed the cellular component of the assay in duplicate, with duplicate ELISA determinations on each cell culture supernatant.
Buffy coat cells isolated from one pint human blood (yielding 40-45 ml final volume plasma plus cells) are diluted with media to 80 ml and LeukoPREP separation tubes (Becton Dickinson) are each overlaid with 10 ml of cell suspension. After 15 min centrifugation at 1500-1800×g, the plasma/media layer is aspirated and then the mononuclear cell layer is collected with a Pasteur pipette and transferred to a 15 ml conical centrifuge tube (Corning). Media is added to bring the volume to 15 ml, gently mix the cells by inversion and centrifuge at 300×g for 15 min. Resuspend the PBMC pellet in a small volume of media, count cells and adjust to 6×10^6 cells/ml.
For the cellular assay, add 1.0 ml of the cell suspension to each well of a 24-well flat bottom tissue culture plate (Corning), 0.5 ml test compound dilution and 0.5 ml LPS solution (Sigma #L-3012; 20 ng/ml solution prepared in complete RPMI media; final LPS concentration 5 ng/ml). The 0.5 ml additions of test compound and LPS are usually sufficient to mix the contents of the wells. Three control mixtures are run per experiment, with either LPS alone, solvent vehicle control, and/or additional media to adjust the final culture volume to 2.0 ml. The cell cultures are incubated for 16-18 hr at 37° C. in the presence of 5% CO2.
At the end of the incubation period, cells are harvested and transferred to 15 ml conical centrifuge tubes. After centrifugation for 10 min at 200×g, supernatants are harvested and transferred to 1.5 ml Eppendorf tubes. It may be noted that the cell pellet may be utilized for a biochemical evaluation of pre-IL-1β and/or mature IL-1β content in cytosol extracts by western blotting or ELISA with pre-IL-1β specific antisera.
PBMC are isolated and prepared as described above. Media (1.0 ml) is first added to wells followed by 0.5 ml of the PBMC suspension. After a one hour incubation, plates are gently shaken and nonadherent cells aspirated from each well. Wells are then gently washed three times with 1.0 ml of media and final resuspended in 1.0 ml media. The enrichment for adherent cells generally yields 2.5-3.0×10^5 cells per well. […]

For assay [2], the target named is T1, interleukin-1β converting enzyme (ICE) (Homo sapiens, UniProt P29466).
T1 sequence (P29466 120-297 limits assumed): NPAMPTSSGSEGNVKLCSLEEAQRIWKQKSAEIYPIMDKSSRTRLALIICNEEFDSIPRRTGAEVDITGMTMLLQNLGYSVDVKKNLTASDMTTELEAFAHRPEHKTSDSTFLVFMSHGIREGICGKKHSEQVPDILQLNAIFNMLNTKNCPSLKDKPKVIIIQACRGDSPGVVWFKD
T1 sequence (P29466 317-404 limits assumed): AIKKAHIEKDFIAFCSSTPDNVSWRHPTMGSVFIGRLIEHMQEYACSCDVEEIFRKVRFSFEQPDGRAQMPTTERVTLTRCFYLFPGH
The assay can be described thus: Enzyme assay with UV-visible substrate (Succinyl-Tyr-Val-Ala-Asp-pNitroanilide). In kind it is biochemical. The procedure: 1. Enzyme assay with UV-visible substrate
This assay is run using an Succinyl-Tyr-Val-Ala-Asp-pNitroanilide substrate (SEQ ID NO: 1). Synthesis of analogous substrates is described by L. A. Reiter (Int. J. Peptide Protein Res. 43, 87-96 (1994)). The assay mixture contains: […]
The visible ICE assay is run in a 96-well microtiter plate. Buffer, ICE and DMSO (if inhibitor is present) are added to the wells in the order listed. The components are left to incubate at room temperature for 15 minutes starting at the time that all components are present in all wells. The microtiter plate reader is set to incubate at 37° C. After the 15 minute incubation, substrate is added directly to the wells and the reaction is monitored by following the release of the chromophore (pNA) at 405-603 nm at 37° C. for 20 minutes. A linear fit of the data is performed and the rate is calculated in mOD/min. DMSO is only present during experiments involving inhibitors, buffer is used to make up the volume to 100 μl in the other experiments.
(§1) For determination of enzyme inhibition constants (Ki) or the mode of inhibition (competitive, uncompetitive or noncompetitive), the rate data determined in the enzyme assays at varying inhibitor concentrations are computer-fit to standard enzyme kinetic equations (see I. H. Segel, Enzyme Kinetics, Wiley-Interscience, 1975).

Assay [3] concerns the target T1, interleukin-1β converting enzyme (ICE). Description: Enzyme assay with fluorescent substrate (Acetyl-Tyr-Val-Ala-Asp-AMC). The class given is biochemical. The settings on record: Example 2 table, read-out: Fluorescence Ki. As for the experimental part: 2. Enzyme Assay with Fluorescent Substrate
This assay is run essentially according to Thornberry et al. (Nature 356: 768-774 (1992)), using substrate 17 referenced in that article. The substrate is: Acetyl-Tyr-Val-Ala-Asp-amino-4-methylcoumarin (AMC) (SEQ ID NO: 2). The following components are mixed: […]
The assay is run in a 96 well microtiter plate. Buffer and ICE are added to the wells. The components are left to incubate at 37° C. for 15 minutes in a temperature-controlled wellplate. After the 15 minute incubation, the reaction is started by adding substrate directly to the wells and the reaction is monitored @37° C. for 30 minutes by following the release of the AMC fluorophore using an excitation wavelength for 380 nm and an emission wavelength of 460 nm. A linear fit of the data for each well is performed and a rate is determined in fluorescence units per second.
as §1

The mark [4] stands for this setting: Homo sapiens, PBMC, Example 2 table.

For five compounds, IC50 and Ki results are on record in US5716929A (Vertex Pharmaceuticals, Inc., priority 1995, dated 1998).

The compound `CC(=O)N[C@@H](Cc1ccc(O)cc1)C(=O)N[C@H](C(=O)N1CC(O)C[C@H]1C(=O)NC(C=O)CC(=O)O)C(C)C` (stereo partly shown) [J, N-[N-Acetyl-tyrosinyl-valinyl-(4-hydroxyprolinyl)]-3-amino-4-oxobutanoicacid] displayed an IC50 in assay [1] (setting [4]) of 5 to 7 µM.

Take `CC(=O)N[C@@H](Cc1ccc(O)cc1)C(=O)N[C@H](C(=O)N1CC(OCc2ccccc2)C[C@H]1C(=O)NC(C=O)CC(=O)O)C(C)C` (stereo partly shown) [Compound K, N-[N-Acetyl-tyrosinyl-valinyl-(4-benzyloxy)prolinyl]-3-amino-4-oxobutanoicacid]: the Ki in assay [2] (Example 2 table) was 10 nM; in assay [3], 2 nM. Also, the IC50 in assay [1] (Example 2 table) fell in the range of 2 to 11 µM.

Compound `COc1cccc2nc(C(=O)[C@H](CC(=O)O)NC(=O)[C@@H]3C[C@H](Oc4ccccc4)CN3C(=O)[C@@H](NC(C)=O)C(C)C)oc12` [Compound 86, N-Acetyl-(S)-valinyl-(4-(S)-phenoxy)prolinyl-3(S)-amino-4-(7-methoxybenzoxazol-2-yl)-4-oxo-butanoic acid] yielded a Ki in assay [2] (Example 6 table) of 175 nM. In assay [1] (Example 6 table), this compound yielded an IC50 of 4 µM.

`CC(=O)N[C@@H](Cc1ccc(O)cc1)C(=O)N[C@H](C(=O)N1CC(Oc2ccccc2)C[C@H]1C(=O)NC(C=O)CC(=O)O)C(C)C` (stereo partly shown) [I, N-(N-Acetyl-tyrosinyl-valinyl-(4-phenoxyprolinyl))-3-amino-4-oxobutanoicacid]: 2.6 µM corresponded to half-maximal inhibition in assay [1] (setting [4]) (IC50).

For the compound “N-(N-Acetyl-tyrosinyl-valinyl-pipecolyl)-3-amino-4-oxobutanoic acid [H]”, the figures for the Ki in assay [2] (Example 2 table) and in assay [3] were 23 nM and 4.7 nM, respectively. In assay [1] (Example 2 table), this compound gave a concentration for half-maximal inhibition (IC50) of 6 to 11 µM.

The IC50 is the concentration at which inhibition is half-maximal. Usually Ki stands for the equilibrium dissociation constant of an inhibitor or competing ligand from its target.
